Activity calls are given as the source filed them. Bridge positions count the residues as written; N and C are the ends. Square brackets hold non-standard residues; d marks the D form. Peptide text beside a SMILES is read from it. NMeF = CN[C@@H](Cc1ccccc1)C(=O)O
What was measured:
[1] = tested on: Mus musculus; test: Antinociceptive activity against po dosed Kunming mouse model of carrageenan-induced mechanical inflammatory pain assessed as reduction in paw withdrawl threshold measured up to 180 mins by Von Frey assay; type: functional; conditions: 3 h, time min <=180
[2] = Cmax in Kunming mouse at 868.1 nmol/kg, po measured up to 120 mins by LC-MS/MS analysis; type: ADME, organism-based; parameters: route oral, dose 868.1 nmol/kg, time <=120; conditions: in vivo
[3] = molecular target: Delta-type opioid receptor (Homo sapiens, UniProt P41143); test: (§1) Agonist activity at DOR (unknown origin) expressed in HEK293-A cells assessed as inhibition of forskolin-induced cAMP accumulation preincubated for 30 mins in presence of 3-isobutyl-1-methylxanthine followed by forskolin and compound addition by competitive PKA binding assay relative to control; type: functional, cell-based; conditions: filed as agonist
Sequence of Delta-type opioid receptor (P41143 whole entry): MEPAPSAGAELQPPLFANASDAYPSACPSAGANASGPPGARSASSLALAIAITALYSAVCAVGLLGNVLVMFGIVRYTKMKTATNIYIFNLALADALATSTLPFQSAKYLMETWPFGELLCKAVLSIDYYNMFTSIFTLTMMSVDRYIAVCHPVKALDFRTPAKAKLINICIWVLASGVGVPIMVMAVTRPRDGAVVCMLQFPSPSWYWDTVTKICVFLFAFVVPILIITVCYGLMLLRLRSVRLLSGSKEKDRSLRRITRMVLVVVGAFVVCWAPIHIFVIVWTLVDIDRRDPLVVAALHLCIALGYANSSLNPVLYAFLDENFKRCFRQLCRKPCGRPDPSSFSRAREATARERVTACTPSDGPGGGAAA

[4] = tested on: Mus musculus; test: Antinociception activity in po dosed Kunming mouse model of sciatic nerve CCI-induced neuropathic pain assessed as reduction in thermal hypersensitivity by measuring reduction in paw withdrawl threshold measured up to 180 mins by Hargreaves test; type: functional; conditions: 3 h, time min <=180
[5] = MRT (0 to infinity) in Kunming mouse at 868.1 nmol/kg, iv measured up to 120 mins by LC-MS/MS analysis; type: ADME, organism-based; conditions: in vivo
[6] = tested on: Mus musculus; test: Antinociceptive activity against Kunming mouse model of thermal-induced nociception assessed as prolongation of tail-flick latency period at 8.68 nmol/kg, po in presence of Nal at 1 mg/kg, ip measured up to 240 mins by tail-flick test; type: functional, organism-based; conditions: time min <=240
[7] = tested on: Mus musculus; test: Antinociceptive activity against Kunming mouse model of thermal-induced nociception assessed as prolongation of tail-flick latency period at 8.68 nmol/kg, po in presence of NTI at 1 mg/kg, ip measured up to 240 mins by tail-flick test; type: functional, organism-based; conditions: time min <=240
[8] = Toxicity in Kunming mouse assessed as effect on locomotor activity at 86.8 to 868.1 nmol/kg, po measured for 150 mins by open field test; type: organism-based; conditions: in vivo, 2.5 h, dose 86.8-868.1 nmol/kg
[9] = tested on: Mus musculus; test: Antinociception activity in po dosed Kunming mouse model of sciatic nerve CCI-induced neuropathic pain assessed as reduction in mechanical hypersensitivity by measuring reduction in paw withdrawl threshold measured up to 180 mins by Von Frey test; type: functional; conditions: 3 h, time min <=180
[10] = tested on: Mus musculus; test: Antinociceptive activity against Kunming mouse model of thermal-induced nociception assessed as peripheral analgesia administered subcutaneously by tail-flick test; type: functional; conditions: sc
[11] = tested on: Mus musculus; test: Antinociceptive activity against Kunming mouse model of thermal-induced nociception assessed as prolongation of tail-flick latency period at 0.87 nmol/kg, po in presence of RF9 at 5 mg/kg, ip measured up to 240 mins by tail-flick test; type: functional, organism-based; conditions: time min <=240
[12] = tested on: Mus musculus; test: Antinociceptive activity against Kunming mouse model of thermal-induced nociception assessed as prolongation of tail-flick latency period at 8.68 nmol/kg, sc in presence of NTI at 1 mg/kg, sc measured up to 240 mins by tail-flick test; type: functional, organism-based; conditions: time min <=240
[13] = tested on: Mus musculus; test: Antinociceptive activity against Kunming mouse model of thermal-induced nociception assessed as prolongation of tail-flick latency period at 0.5 pmol, icv in presence of RF9 measured up to 240 mins by tail-flick test; type: functional, organism-based; conditions: time min <=240
[14] = tested on: Mus musculus; test: Antinociceptive activity against Kunming mouse model of thermal-induced nociception assessed as prolongation of tail-flick latency period at 8.68 nmol/kg, sc in presence of NALM at 1 mg/kg, sc measured up to 240 mins by tail-flick test; type: functional, organism-based; conditions: time min <=240
[15] = molecular target: T1, Neuropeptide FF receptor 2 (Homo sapiens, UniProt Q9Y5X5); test: as §1, with “NPFF2R” for “DOR”, “accumulation by measuring maximal efficacy” for “accumulation”; type: functional, cell-based; conditions: filed as agonist
T1 sequence (Q9Y5X5 whole entry): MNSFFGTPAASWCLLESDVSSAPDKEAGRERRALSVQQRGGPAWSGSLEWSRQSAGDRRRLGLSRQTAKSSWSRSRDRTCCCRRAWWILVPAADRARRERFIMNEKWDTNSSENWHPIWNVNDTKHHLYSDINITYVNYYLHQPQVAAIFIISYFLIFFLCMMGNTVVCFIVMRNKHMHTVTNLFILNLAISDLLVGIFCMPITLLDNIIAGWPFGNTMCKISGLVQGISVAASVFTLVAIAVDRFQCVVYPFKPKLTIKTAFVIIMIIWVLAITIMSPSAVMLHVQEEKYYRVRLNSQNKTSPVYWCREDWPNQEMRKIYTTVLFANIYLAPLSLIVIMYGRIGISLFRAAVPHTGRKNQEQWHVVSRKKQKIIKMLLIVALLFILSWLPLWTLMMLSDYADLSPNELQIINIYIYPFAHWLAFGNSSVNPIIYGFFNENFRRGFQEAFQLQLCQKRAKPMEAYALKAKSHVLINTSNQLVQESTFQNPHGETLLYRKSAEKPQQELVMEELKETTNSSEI

[16] = tested on: Mus musculus; test: Antinociceptive activity against Kunming mouse model of thermal-induced nociception assessed as prolongation of tail-flick latency period at 8.68 nmol/kg, sc in presence of Nal at 1 mg/kg, sc measured up to 240 mins by tail-flick test; type: functional, organism-based; conditions: time min <=240
[17] = Clearance in Kunming mouse at 868.1 nmol/kg, iv measured up to 120 mins by LC-MS/MS analysis; type: ADME, organism-based; conditions: in vivo
[18] = Half life in Kunming mouse at 868.1 nmol/kg, iv measured up to 120 mins by LC-MS/MS analysis; type: ADME, organism-based; conditions: in vivo
[19] = tested on: Mus musculus; test: Antinociceptive activity in Kunming mouse assessed as analgesic tolerance administered subcutaneously once daily for 8 days by tail flick test; type: functional, organism-based; conditions: time 8.0 day
[20] = Toxicity in naloxone-induced withdrawal symptoms in Kunming mouse assessed as effect on jumping response at 17 to 870 nmol/kg, po for every 8 hrs followed by naloxone stimulation and measured for 3 days; type: organism-based; conditions: in vivo, 72 h, dose 17-870 nmol/kg, time 3 day
[21] = molecular target: Neuropeptide FF receptor 1 (Homo sapiens, UniProt Q9GZQ6); test: as §1, with “NPFF1R” for “DOR”, “accumulation by measuring maximal efficacy” for “accumulation”; type: functional, cell-based; conditions: filed as agonist
Sequence of Neuropeptide FF receptor 1 (Q9GZQ6 whole entry): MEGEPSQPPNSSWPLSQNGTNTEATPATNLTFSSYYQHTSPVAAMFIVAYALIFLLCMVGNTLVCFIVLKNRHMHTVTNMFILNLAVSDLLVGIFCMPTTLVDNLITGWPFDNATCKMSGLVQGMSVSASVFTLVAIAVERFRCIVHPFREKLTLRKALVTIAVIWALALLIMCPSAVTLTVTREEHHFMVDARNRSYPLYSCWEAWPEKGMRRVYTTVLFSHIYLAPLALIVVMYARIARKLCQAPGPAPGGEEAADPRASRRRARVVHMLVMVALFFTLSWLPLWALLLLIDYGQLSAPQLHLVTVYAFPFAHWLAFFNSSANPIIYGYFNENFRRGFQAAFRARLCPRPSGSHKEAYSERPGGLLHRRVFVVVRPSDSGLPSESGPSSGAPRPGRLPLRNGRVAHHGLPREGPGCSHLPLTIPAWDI

[22] = tested on: Mus musculus; test: Antinociceptive activity against Kunming mouse model of thermal-induced nociception assessed as maximum possible effect at 8.68 nmol/kg, po measured after 60 min by tail flick test relative to control; type: functional; conditions: 1 h
[23] = tested on: Mus musculus; test: Antinociceptive activity against po dosed Kunming mouse model of thermal-induced nociception assessed as prolongation of tail-flick latency period measured up to 240 mins by tail-flick test; type: functional; conditions: 4 h, time min <=240
[24] = Half life in Kunming mouse at 868.1 nmol/kg, po measured up to 120 mins by LC-MS/MS analysis; type: ADME, organism-based; conditions: in vivo
[25] = molecular target: T1, Neuropeptide FF receptor 2; test: Agonist activity at NPFF2R (unknown origin) expressed in HEK293-A cells assessed as inhibition of forskolin-induced cAMP accumulation preincubated for 30 mins in presence of 3-isobutyl-1-methylxanthine followed by forskolin and compound addition by competitive PKA binding assay; type: functional, cell-based; conditions: read-out: EC50
[26] = Tmax in Kunming mouse at 868.1 nmol/kg, po measured up to 120 mins by LC-MS/MS analysis; type: ADME, organism-based; conditions: in vivo
[27] = AUC (0 to infinity) in Kunming mouse at 868.1 nmol/kg, iv measured up to 120 mins by LC-MS/MS analysis; type: ADME, organism-based; parameters: route intravenous, dose 868.1 nmol/kg, time <=120; conditions: in vivo, 2 h
[28] = Metabolic stability in mouse plasma assessed as degradation half life at 0.01 M measured up to 360 mins; type: ADME, cell-free
[29] = tested on: Mus musculus; test: Antinociceptive activity against Kunming mouse model of thermal-induced nociception assessed as prolongation of tail-flick latency period at 8.68 nmol/kg, sc in presence of nor-BNI at 1 mg/kg, sc measured up to 240 mins by tail-flick test; type: functional, organism-based; conditions: time min <=240
[30] = Absolute oral bioavailability in Kunming mouse at 868.1 nmol/kg measured up to 120 mins by LC-MS/MS analysis; type: ADME, organism-based; conditions: in vivo
[31] = tested on: Mus musculus; test: Antinociceptive activity against Kunming mouse model of thermal-induced nociception assessed as maximum possible effect at 8.68 nmol/kg, po measured after 30 min by tail flick test relative to control; type: functional; conditions: 0.5 h
[32] = tested on: Mus musculus; test: Antinociceptive activity against Kunming mouse model of thermal-induced nociception assessed as prolongation of tail-flick latency period at 8.68 nmol/kg, po in presence of nor-BNI at 1 mg/kg, ip measured up to 240 mins by tail-flick test; type: functional, organism-based; conditions: time min <=240

## CN1C(=O)CNC(=O)[C@H](NC(=O)[C@@H](N)Cc2ccc(O)cc2)CCCCNC(=O)C[C@@H](C(=O)N2CCC[C@H]2C(=O)N[C@@H](CCC(N)=O)C(=O)N[C@@H](CCCNC(=N)N)C(=O)N[C@@H](Cc2ccccc2)C(N)=O)NC(=O)[C@@H]1Cc1ccccc1 (H-Y[dK]G[NMeF]DPQRF-NH2; lactam 2-5)
[1]
  ED50: 0.00344 µmol/kg
[2]
  Cmax: 215 ng/mL
[3]
  Emax: 56.1%
[4]
  ED50: 0.00322 µmol/kg
[5]
  MRT inf: 5 min
[6]
  Activity: inactive
[7]
  Activity: Active
[8]
  Activity: Non-Toxic
[9]
  ED50: 0.00334 µmol/kg
[10]
  ED50: 0.00028 µmol/kg
[11]
  Activity: Active
[12]
  Activity: Active
[13]
  Activity: Active
[14]
  Activity: inactive
[15]
  Emax: 59.5%
[16]
  Activity: inactive
[17]
  clearance: 30 mL/min/kg
[18]
  half-life: 28.1 min
[19]
  Activity: inactive
[20]
  Activity: Non-Toxic
[21]
  Emax: 73.7%
[22]
  MPE: 78.9%
[23]
  ED50: 0.00119 µmol/kg
[24]
  half-life: 188 min
[25]
  EC50: 49.8 nM
[26]
  Tmax: 1 min
[27]
  AUC: 33297.7 µg·min/L
[28]
  half-life at 10000 µM: 45.4 min
[29]
  Activity: inactive
[30]
  bioavailability: 43.8%
[31]
  MPE: 94.2%
[32]
  Activity: inactive

Reference: ChEMBL document CHEMBL5034023, “Development of Multifunctional and Orally Active Cyclic Peptide Agonists of Opioid/Neuropeptide FF Receptors that Produce Potent, Long-Lasting, and Peripherally Restricted Antinociception with Diminished Side Effects” (J Med Chem, 2021)
